This note sets out measurements from patent US11203586B2, “Iridinesulfonamide compound and use method thereof” (Chia Tai Tianqing Pharmaceutical Group Co., Ltd., priority 2016, dated 2021).

SMILES strings stand for the structures. pIC50: −log10 of the molar value.

IDH1 (R132H), sequence (O75874 whole entry R132H): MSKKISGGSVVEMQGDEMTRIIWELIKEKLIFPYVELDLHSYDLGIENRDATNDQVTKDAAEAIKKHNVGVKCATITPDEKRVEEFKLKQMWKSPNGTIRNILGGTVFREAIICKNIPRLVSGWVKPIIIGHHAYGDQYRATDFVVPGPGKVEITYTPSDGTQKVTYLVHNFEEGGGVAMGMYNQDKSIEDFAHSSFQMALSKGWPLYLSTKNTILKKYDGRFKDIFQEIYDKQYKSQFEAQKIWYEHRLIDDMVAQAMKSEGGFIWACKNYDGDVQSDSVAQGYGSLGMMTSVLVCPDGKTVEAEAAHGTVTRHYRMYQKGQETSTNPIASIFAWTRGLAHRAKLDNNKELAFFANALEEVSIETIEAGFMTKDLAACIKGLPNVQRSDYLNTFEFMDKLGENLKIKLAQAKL

This assay addresses IDH1 (R132H) (Homo sapiens (Human), UniProt O75874, R132H). Put plainly: Enzyme assay, NADPH decrease detected with Diaphorase/Resazurin. Type of assay: biochemical. To be noted: 40 nM enzyme, 20 μM NADPH, incubated at 23° C. for 16 hours before α-KG; 12 concentrations. The text has this: Resazurin is a traditional redox dye, and after a redox reaction, it can be reduced from a blue resazurin without fluorescence to a pink fluorescent substance, resorufin, which can be measured and quantified with relative fluorescence unit (RFU) of fluorophotometer (Ex=530-570 nm, Em=590-620 nm). At present, resazurin is widely used for determining the viability of bacteria, cells, etc. and the enzyme activity detection of oxidoreductase. We detected the decrease of cofactor NADPH to determine the inhibitory activity of a compound against IDHm and detected the generation of cofactor NADPH to determine the inhibitory activity of a compound against IDH WT.
The compound was pre-incubated with IDHm and NADPH, and then the reaction was initiated by adding α-KG and performed for certain time under a linear condition.
Then, Diaphorase (lipoamide dehydrogenase) and the corresponding substrate Resazurin were added thereto for detection. Lipoamide dehydrogenase terminated the IDH2m reaction by decreasing the available cofactor NADPH, which oxidized NADPH to NADP, and reduced resazurin to high fluorescent resorufin. The amount of the remaining cofactor NADPH after a specific reaction time was quantified via an easily detectable fluorophore.
The specific operation was as follows: 2.5 μl of the compound diluted in a 3-fold gradient was added to a 384-well plate, followed by adding 5 μL of the reaction buffer (20 mM Tris-HCl, pH 7.5; 150 mM NaCl; 10 mM MgCl2; 0.4 mg/mL BSA (Bovine Serum Albumin) and 2 mM DTT (dithiothreitol)) containing 40 nM IDH1 (R132H/R132C) and 20 μM NADPH. Then, the above test mixture was incubated at 23° C. for 16 hours, and then 2.5 μL of the reaction buffer containing 4 mM α-KG was added to initiate the reaction. After they were incubated for 60 minutes at room temperature, 5 μL of the termination mixture (0.4 U/ml Diaphorase and 20 μM Resazurin) formulated with the reaction buffer was added to convert resazurin to resorufin, so as to measure the amount of the remaining NADPH. After incubating at 23° C. for 10 minutes, fluorescence values were determined through Flexstation 3 at Ex535/Em595. The enzyme activity of each compound was respectively determined at 12 concentrations, and the data were calculated using the software GraFit6.0 (Erithacus Software) to obtain the IC50 value of each compound.
For orientation: pIC50 means the negative decadic logarithm of the IC50, by convention in mol/L. A higher pIC50 goes with a small IC50. On to `CC(C)[C@@H]1CN1S(=O)(=O)NCC(=O)N(c1cccc(F)c1)C(C(=O)NC1CCCCC1)c1ccccc1Cl` (stereo in doubt) [Example 9, 2-(2-chlorophenyl)-N-cyclohexyl-2-(N-(3-fluorophenyl)-2-((R)-2-isopropylaziridine-1-sulfonylamino)acetamido)acetamide], for which the pIC50 was more than 7.00. Next, `O=C(NC1CCCCC1)C(c1ccccc1Cl)N(C(=O)CNS(=O)(=O)N1CC1)c1cccc(F)c1` (stereo not shown) [Example 1, 2-(aziridinyl-1-sulfonylamino)-N-(1-(2-chlorophenyl)-2-(cyclohexylamino)-2-oxoethyl)-N-(3-fluorophenyl)acetamide]: more than 7.70; `C[C@H](NS(=O)(=O)N1CC1)C(=O)N(c1cccc(F)c1)C(C(=O)NC1CCCCC1)c1ccccc1Cl` (stereo partly shown) [Example 2, (2)-2-(aziridine-1-sulfonylamino)-N-(1-(2-chlorophenyl)-2-(cyclohexylamino)-2-oxoethyl)-N-(3-fluorophenyl)propanamide]: more than 6.30; `C[C@@H](NS(=O)(=O)N1CC1)C(=O)N(c1cccc(F)c1)[C@@H](C(=O)NC1CCCCC1)c1ccccc1Cl` [Example 3, (R)-2-(aziridine-1-sulfonylamino)-N—((R)-(2-chlorophenyl)-2-(cyclohexylamino)-2-oxoethyl)-N-(3-fluorophenyl)propanamide]: more than 5.00. Regarding `C[C@@H](NS(=O)(=O)N1CC1)C(=O)N(c1cccc(F)c1)[C@H](C(=O)NC1CCCCC1)c1ccccc1Cl` [Example 4, (R)-2-(aziridine-1-sulfonylamino)-N—((S)-1-(2-chlorophenyl)-2-(cyclohexylamino)-2-oxoethyl)-N-(3-fluorophenyl)propanamide], the pIC50 was more than 7.00.

Regarding `O=C(NC1CCCCC1)C(c1ccccc1Cl)N(C(=O)CCNS(=O)(=O)N1CC1)c1cccc(F)c1` (stereo not shown) [Example 5, 3-(aziridine-1-sulfonylamino)-N-(1-(2-chlorophenyl)-2-(cyclohexylamino)-2-oxoethyl)-N-(3-fluorophenyl)propanamide], the pIC50 was more than 7.70. `O=C(NC1CCCCC1)C(c1ccccc1Cl)N(C(=O)CCS(=O)(=O)N1CC1)c1cccc(F)c1` (stereo not shown) [Example 6, 3-(aziridin-1-ylsulfonyl)-N-(1-(2-chlorophenyl)-2-(cyclohexylamino)-2-oxoethyl)-N-(3-fluorophenyl)propanamide]: the pIC50 is more than 7.70.

`CC(C)[C@@H]1CN1S(=O)(=O)N(CC(=O)N(c1cccc(F)c1)C(C(=O)NC1CCCCC1)c1ccccc1Cl)C(=O)OC(C)(C)C` (stereo partly shown) [Example 7] had a negative logarithm of the IC50 (pIC50) of more than 5.00. The molecule `O=C(NC1CC(F)(F)C1)C(c1ccccc1Cl)N(C(=O)CCNS(=O)(=O)N1CC1)c1cccc(F)c1` (stereo not shown) [Example 8, 3-(aziridine-1-sulfonylamino)-N-(1-(2-chlorophenyl)-2-((3,3-difluorocyclobutyl)amino)-2-oxoethyl)-N-(3-fluorophenyl)propanamide] gave a negative logarithm of the IC50 (pIC50) of more than 7.70. For `O=C(NC1CC(F)(F)C1)C(c1ccccc1Cl)N(C(=O)CNS(=O)(=O)N1CC1)c1cncc(F)c1` (stereo not shown) [Example 11, 2-(aziridine-1-sulfonylamino)-N-(1-(2-chlorophenyl)-2-((3,3-difluorocyclobutyl)amino)-2-oxoethyl)-N-(5-fluoropyridin-3-yl)acetamide] the value was more than 7.00. The molecule `CN(CC(=O)N(c1cccc(F)c1)C(C(=O)NC1CCCCC1)c1ccccc1Cl)S(=O)(=O)N1CC1` (stereo not shown) [Example 12, 2-(2-chlorophenyl)-N-cyclohexyl-2-(N-(3-fluorophenyl)-2-(N-methylaziridine-1-sulfonylamino)acetamido)acetamide] had a pIC50 of more than 7.70. For `O=C(NC1CC(F)(F)C1)C(c1ccccc1Cl)N(C(=O)CCCNS(=O)(=O)N1CC1)c1cccc(F)c1` (stereo not shown) [Example 13, 4-(aziridine-1-sulfonylamino)-N-(1-(2-chlorophenyl)-2-((3,3-difluorocyclobutyl)amino)-2-oxoethyl)-N-(3-fluorophenyl)butanamide] the value was more than 7.70; for `O=C(NC1CC(F)(F)C1)C(c1ccccc1Cl)N(C(=O)CCS(=O)(=O)N1CC1)c1cccc(F)c1` (stereo not shown) [Example 14, 3-(aziridin-1-ylsulfonyl)-N-(1-(2-chlorophenyl)-2-((3,3-difluorocyclobutyl)amino)-2-oxoethyl)-N-(3-fluorophenyl)propanamide], more than 7.70; for `O=C(NC1CCCCC1)C(c1ccccc1Cl)N(C(=O)CS(=O)(=O)N1CC1)c1cccc(F)c1` (stereo not shown) [Example 15, 2-(aziridin-1-ylsulfonyl)-N-(1-(2-chlorophenyl)-2-(cyclohexylamino)-2-oxoethyl)-N-(3-fluorophenyl)acetamide], more than 7.70. For `O=C(NC1CCCCC1)C(c1ccccc1Cl)N(C(=O)CNS(=O)(=O)N1CC1)c1cc(F)cc(F)c1` (stereo not shown) [Example 16, 2-(aziridine-1-sulfonylamino)-N-(1-(2-chlorophenyl)-2-(cyclohexylamino)-2-oxoethyl)-N-(3,5-difluorophenyl)acetamide] the value was more than 7.70.

As for `O=C(NC1CCCCC1)C(c1ccccc1Cl)N(C(=O)CNS(=O)(=O)N1CC1)c1cncc(F)c1` (stereo not shown) [Example 17, 2-(aziridine-1-sulfonylamino)-N-(1-(2-chlorophenyl)-2-(cyclohexylamino)-2-oxoethyl)-N-(5-fluoropyridin-3-yl)acetamide], the negative-log IC50 (pIC50) was more than 7.70. `O=C(NC1CCCCC1)[C@@H](c1ccccc1Cl)N(C(=O)[C@@H]1CCCN1S(=O)(=O)N1CC1)c1cccc(F)c1` [Example 18, (S)-1-(aziridin-1-ylsulfonyl)-N—((R)-1-(2-chlorophenyl)-2-(cyclohexylamino)-2-oxoethyl)-N-(3-fluorophenyl)pyrrolidine-2-carboxamide]: the negative-log IC50 (pIC50) was more than 5.00. As for `O=C(NC1CCCCC1)[C@H](c1ccccc1Cl)N(C(=O)[C@@H]1CCCN1S(=O)(=O)N1CC1)c1cccc(F)c1` [Example 19, (S)-1-(aziridin-1-ylsulfonyl)-N—((S)-1-(2-chlorophenyl)-2-(cyclohexylamino)-2-oxoethyl)-N-(3-fluorophenyl)pyrrolidine-2-carboxamide], the pIC50 is more than 7.00. `O=C(NC1CCCCC1)C(c1ccccc1Cl)N(C(=O)CCCCS(=O)(=O)N1CC1)c1cccc(F)c1` (stereo not shown) [Example 20, 5-(aziridin-1-ylsulfonyl)-N-(1-(2-chlorophenyl)-2-(cyclohexylamino)-2-oxoethyl)-N-(3-fluorophenyl)pentanamide] showed a negative-log IC50 (pIC50) of more than 7.70. Take `O=C(NC1CCCCC1)C(c1ccccc1Cl)N(C(=O)CCCS(=O)(=O)N1CC1)c1cccc(F)c1` (stereo not shown) [Example 21, 4-(aziridin-1-ylsulfonyl)-N-(1-(2-chlorophenyl)-2-(cyclohexylamino)-2-oxoethyl)-N-(3-fluorophenyl)butanamide]: the negative-log IC50 (pIC50) was more than 7.70. For `O=C(NC1CCCCC1)C(c1ccccc1Cl)N(C(=O)C1CC(NS(=O)(=O)N2CC2)C1)c1cccc(F)c1` (stereo not shown) [Example 22, 3-(aziridine-1-sulfonylamino)-N-(1-(2-chlorophenyl)-2-cyclohexylamino-2-oxoethyl)-N-(3-fluorophenyl)cyclobutyl carboxamide] the value was more than 7.70. Next, `O=C(NC1CC(F)(F)C1)C(c1ccccc1Cl)N(C(=O)CNS(=O)(=O)N1CC1)c1cccc(C(F)(F)F)c1` (stereo not shown) [Example 23, 2-(aziridine-1-sulfonylamino)-N-(1-(2-chlorophenyl)-2-((3,3-difluorocyclobutyl)amino)-2-oxoethyl)-N-(3-trifluoromethylphenyl)acetamide]: more than 7.00; `O=C(NC1CCCCC1)C(c1ccccc1Cl)N(C(=O)C1CN(S(=O)(=O)N2CC2)C1)c1cccc(F)c1` (stereo not shown) [Example 24, 1-(aziridin-1-ylsulfonyl)-N-(1-(2-chlorophenyl)-2-cyclohexylamino-2-oxoethyl)-N-(3-fluorophenyl)azetidine-3-carboxamide]: more than 7.70.

The molecule `O=C(NC1CC(F)(F)C1)[C@@H](c1ccccc1Cl)N(C(=O)CNS(=O)(=O)N1CC1)c1cccc(F)c1` [Example 26, (R)-2-(aziridine-1-sulfonylamino)-N-(1-(2-chlorophenyl)-2-((3,3-difluorocyclobutyl)amino)-2-oxoethyl)-N-(3-fluorophenyl)acetamide] had a pIC50 of more than 7.00.

Molecule `O=C(NC1CCCCC1)C(c1ccccc1Cl)N(C(=O)C1CCN(S(=O)(=O)N2CC2)C1)c1cccc(F)c1` (stereo not shown) [Example 27, 1-(aziridin-1-ylsulfonyl)-N-(1-(2-chlorophenyl)-2-cyclohexylamino-2-oxoethyl)-N-(3-fluorophenyl)pyrrolidine-3-carboxamide] showed a pIC50 of more than 7.70.
